According to US20080227798A1, “POLYMORPHS OF SUCCINATE SALT OF 2-[6-(3-AMINO-PIPERIDIN-1-YL)-3-METHYL-2,4-DIOXO-3,4-DIHYDRO-2H-PYRIMIDIN-1-YLMETHY]-4-FLUOR-BENZONITRILE AND METHODS OF USE THEREFOR” (priority 2006, published 2008):
“Also recorded” adds a separate entry of the source. Each block holds one compound with its values, some of them ahead of it.

What was measured:
Format in all cases: physicochemical
[1] = Thermogravimetric analysis (TGA); conditions: from 25° C. to 95° C.
Procedure: Thermogravimetric (TG) analyses were performed using a TA Instruments 2950 thermogravimetric analyzer. Each sample was placed in an aluminum sample pan and inserted into the TG furnace. The furnace was first equilibrated at 25° C., then heated under nitrogen at a rate of 10° C./min, up to a final temperature of 350° C. Nickel and Alumel™ were used as the calibration standards.

[2] = Moisture sorption/desorption analysis; conditions: for form by XRPD of the material remaining after the moisture sorption/desorption analysis: post moisture sorption/desorption
Procedure: Moisture sorption/desorption data were collected on a VTI SGA-100 Vapor Sorption Analyzer. Sorption and desorption data were collected over a range of 5% to 95% relative humidity (RH) at 10% RH intervals under a nitrogen purge. Samples were not dried prior to analysis. Equilibrium criteria used for analysis were less than 0.0100% weight change in 5 minutes, with a maximum equilibration time of 3 hours if the weight criterion was not met. Data were not corrected for the initial moisture content of the samples. NaCl and PVP were used as calibration standards. Moisture sorption and desorption study was conducted on a sample of Form A+B. The sample was prepared by crashed cooling crystallization (Example 3, section A.6) of the polymorphic forms from a ethanol:water (95:5) solution of Compound I. The moisture sorption and desorption study was conducted according to the procedures outlined in Example 3, section B.10. The data collected is plotted in FIG. 13 and summarized in Table L. Moisture sorption and desorption study was conducted on a sample of Form E. The sample was prepared by solvent/antisolvent crystallization (Example 3, section A.7) by the addition of acetonitrile to Compound I in water. The moisture sorption and desorption study was conducted according to the procedures outlined in Example 3, section B.10. The data collected is plotted in FIG. 23 and summarized in Table M. Moisture sorption and desorption study was conducted on a sample of Amorphous Form. The sample was prepared by lyophilolization of a solution of Compound I in water (Example 3, section A.9). The moisture sorption and desorption study was conducted according to the procedures outlined in Example 3, section B.10.

[3] = Vapor stress of amorphous solid
Procedure: Amorphous Compound I was placed in acetone, ethanol, and water vapor chambers for up to eight days. The solids were collected and analyzed by XRPD for form identification.
Solids of Amorphous Form of Compound I were stressed in acetone and ethanol vapor stress chambers for 4 days. Other aliquots of the solids were stressed in a water vapor chamber for 4 days and 8 days. The remaining solids were analyzed by XRPD.

[4] = Approximate solubility of Compound I in different solvents; conditions: for solubility: thermodynamic from solid, ambient temperature, approximate
Procedure: Compound I prepared by the method described in Example 1 was used for the solubility study. Solvents and other reagents were of ACS or HPLC grade and were used as received.
A weighed sample (typically about 20-25 mg) of Compound I was treated at ambient temperature with aliquots (typically ≧50 μL) of the test solvent with sonication between additions. Solvents were either reagent or HPLC grade. Solubility was estimated from the total volume of solvent used to obtain a clear solution, as determined by visual inspection. Solubility is expressed as “less than” when dissolution was not observed. If dissolution occurred after the last aliquot was added then solubility is expressed as “greater than or equal to” (≧). The actual solubilities may be greater than determined, due to over addition of solvent (large aliquots) or slow dissolution rates. Approximate solubilities of Compound I are summarized in Table A. The solubility values have been rounded to the nearest whole number and are reported to the nearest mg/mL.

[5] = Relative humidity stressing experiments; conditions: conditions not given
Excerpt: Samples of Compound I were placed uncovered in approximately 58%, 88%, and 97% relative humidity jars. The samples were stored in the jars for approximately 8 days. The solids were collected and analyzed by XRPD for form identification. […] An aliquot of a mixture of Form A+B was stressed at 88% relative humidity for 23 days. Amorphous Form was stressed at 58% and 88% relative humidity for 23 days.

SMILES: Cn1c(=O)cc(N2CCC[C@@H](N)C2)n(Cc2ccccc2C#N)c1=O.O=C(O)CCC(=O)O [Amorphous Form]
- TGA weight loss [1]: 1.8%
- TGA weight loss ([1]; lyophilized from Compound I in water): 1.8% weight loss from 25 °C to 95 °C
- weight lost on desorption ([2]; 95-5% RH): Approximately 4.7%
- Weight % chg ([2]; Samp RH 4.97%, 25.05° C., elapsed 1278.0 min (desorption)): −1.269%
- Weight % chg ([2]; Samp RH 5.09%, 25.06° C., elapsed 84.0 min): −0.975%
- Weight % chg ([2]; Samp RH 14.98%, 25.06° C., elapsed 113.6 min (sorption)): −0.589%
- Weight % chg ([2]; Samp RH 15.06%, 25.04° C., elapsed 1243.6 min (desorption)): −1.148%
- Weight % chg ([2]; Samp RH 24.92%, 25.05° C., elapsed 158.4 min (sorption)): −0.166%
- Weight % chg ([2]; Samp RH 25.13%, 25.05° C., elapsed 1210.7 min (desorption)): −1.026%
- Weight % chg ([2]; Samp RH 34.90%, 25.04° C., elapsed 277.5 min (sorption)): 0.841%
- Weight % chg ([2]; Samp RH 35.06%, 25.05° C., elapsed 1179.2 min (desorption)): −0.912%
- Weight % chg ([2]; Samp RH 41.98%, 25.04° C., elapsed 0.1 min (start)): 0.000%
- Weight % chg ([2]; Samp RH 45.05%, 25.03° C., elapsed 392.7 min (sorption)): 2.393%
- Weight % chg ([2]; Samp RH 45.07%, 25.05° C., elapsed 1144.4 min (desorption)): −0.776%
- Weight % chg ([2]; Samp RH 54.99%, 25.02° C., elapsed 470.8 min (sorption)): 4.540%
- Weight % chg ([2]; Samp RH 55.11%, 25.04° C., elapsed 1092.3 min (desorption)): −0.545%
- Weight % chg ([2]; Samp RH 64.90%, 25.02° C., elapsed 508.0 min (sorption)): 6.988%
- Weight % chg ([2]; Samp RH 65.07%, 25.03° C., elapsed 1039.8 min (desorption)): −0.280%
- Weight % chg ([2]; Samp RH 74.82%, 25.02° C., elapsed 654.6 min (sorption)): 0.437%
- Weight % chg ([2]; Samp RH 74.92%, 25.02° C., elapsed 957.5 min (desorption)): 0.176%
- Weight % chg ([2]; Samp RH 84.78%, 25.03° C., elapsed 703.8 min (sorption)): 0.922%
- Weight % chg ([2]; Samp RH 85.31%, 25.02° C., elapsed 877.9 min (desorption)): 1.010%
- Weight % chg ([2]; Samp RH 94.59%, 25.02° C., elapsed 806.9 min (sorption)): 3.400%
- Post MB XRPD (form after moisture sorption/desorption analysis) ([2]; after moisture sorption/desorption): Crystalline, Form A (FIG. 31)
- weight lost on sorption ([2]; at 75% relative humidity): Approximately 7%
- weight loss on equilibration at 5% relative humidity ([2]; equilibration at 5% RH): 1.0%
- weight lost on equilibration ([2]; equilibration at 5% RH): 1.0% weight lost on equilibration at 5% RH,
- weight gain ([2]; from 5-95% RH): 4.4%
- weight gain on sorption ([2]; from 75% to 95% relative humidity): 4.4%
- weight lost ([2]; from 95-5% RH): 4.7%
- form by XRPD of the material remaining after the moisture sorption/desorption analysis [2]: Form A; also recorded: low crystallinity A
- weight gained on sorption ([2]; up to 65% relative humidity): Approximately 8%

SMILES: Cn1c(=O)cc(N2CCC[C@@H](N)C2)n(Cc2ccccc2C#N)c1=O.O=C(O)CCC(=O)O [Amorphous Solid of Compound I]
- Color/morphology after vapor stress ([3]; Acetone vapor, 4 days): off white, irregular
- Color/morphology after vapor stress ([3]; EtOH vapor, 4 days): off white, irregular
- Color/morphology after vapor stress ([3]; Water vapor, 4 days): off white, irregular,
- Form after vapor stress (XRPD) ([3]; Water vapor, 4 days): A + D
- Color/morphology after vapor stress ([3]; Water vapor, 8 days): white, irregular,
- Form after vapor stress (XRPD) ([3]; Water vapor, 8 days): low

- solubility ([4]; 2-propanol:water (88:12), organic solvent or mixture, IPA:H2O (88:12)): 11000 µg/mL
- solubility ([4]; acetonitrile:water (85:15), organic solvent or mixture, ACN:H2O (85:15)): 101000 µg/mL
- solubility ([4]; diethyl ether, organic solvent or mixture, di-Ethyl ether): < 1000 µg/mL
- solubility ([4]; ethanol:water (95:5), organic solvent or mixture, EtOH:H2O (95:5)): 5000 µg/mL
- Solubility (in words) ([4]; most solvents, except DMF, methanol, TFE, water and water:solvent mixtures): Poor solubility
- solubility ([4]; organic solvent or mixture, 1,4-Dioxane): < 1000 µg/mL
- solubility ([4]; organic solvent or mixture, 2-Propanol (IPA)): < 1000 µg/mL
- solubility ([4]; organic solvent or mixture, Acetone): 2000 µg/mL
- solubility ([4]; organic solvent or mixture, Acetonitrile (ACN)): < 1000 µg/mL
- solubility ([4]; organic solvent or mixture, Dichloromethane (DCM)): < 1000 µg/mL
- solubility ([4]; organic solvent or mixture, Dimethyl Formamide (DMF)): 68000 µg/mL
- solubility ([4]; organic solvent or mixture, Ethanol (EtOH)): 2000 µg/mL
- solubility ([4]; organic solvent or mixture, Ethyl Acetate (EtOAc)): < 1000 µg/mL
- solubility ([4]; organic solvent or mixture, Hexanes): < 1000 µg/mL
- solubility ([4]; organic solvent or mixture, Methanol (MeOH)): 20000 µg/mL
- solubility ([4]; organic solvent or mixture, Tetrahydrofuran (THF)): < 1000 µg/mL
- solubility ([4]; organic solvent or mixture, Toluene): < 1000 µg/mL
- solubility ([4]; organic solvent or mixture, Trifluoroethanol (TFE)): > 200000 µg/mL
- solubility ([4]; Water (H2O)): 51000 µg/mL
SMILES: Cn1c(=O)cc(N2CCC[C@@H](N)C2)n(Cc2cc(F)ccc2C#N)c1=O [Compound I, 2-[6-(3-amino-piperidin-1-yl)-3-methyl-2,4-dioxo-3,4-dihydro-2H-pyrimidin-1-ylmethyl]-4-fluoro-benzonitrile succinate]

SMILES: Cn1c(=O)cc(N2CCC[C@@H](N)C2)n(Cc2cc(F)ccc2C#N)c1=O.O=C(O)CCC(=O)O [Form E]
- Weight % chg ([2]; Samp RH 5.03%, 24.77° C., elapsed 730.6 min (desorption)): −1.322%
- Weight % chg ([2]; Samp RH 5.23%, 24.77° C., elapsed 138.3 min): −1.268%
- Weight % chg ([2]; Samp RH 14.89%, 24.78° C., elapsed 154.5 min (sorption)): −1.187%
- Weight % chg ([2]; Samp RH 14.94%, 24.79° C., elapsed 557.2 min (desorption)): −0.102%
- Weight % chg ([2]; Samp RH 24.87%, 24.78° C., elapsed 170.5 min (sorption)): −1.074%
- Weight % chg ([2]; Samp RH 25.02%, 24.79° C., elapsed 543.5 min (desorption)): −0.013%
- Weight % chg ([2]; Samp RH 34.83%, 24.78° C., elapsed 184.5 min (sorption)): −0.947%
- Weight % chg ([2]; Samp RH 35.13%, 24.79° C., elapsed 526.0 min (desorption)): 0.112%
- Weight % chg ([2]; Samp RH 35.22%, 24.77° C., elapsed 0.1 min (start)): 0.000%
- Weight % chg ([2]; Samp RH 44.87%, 24.78° C., elapsed 203.4 min (sorption)): −0.755%
- Weight % chg ([2]; Samp RH 45.03%, 24.78° C., elapsed 512.2 min (desorption)): 0.236%
- Weight % chg ([2]; Samp RH 55.04%, 24.79° C., elapsed 253.5 min (sorption)): −0.223%
- Weight % chg ([2]; Samp RH 55.05%, 24.78° C., elapsed 499.6 min (desorption)): 0.398%
- Weight % chg ([2]; Samp RH 65.05%, 24.78° C., elapsed 281.1 min (sorption)): 0.325%
- Weight % chg ([2]; Samp RH 65.16%, 24.78° C., elapsed 487.4 min (desorption)): 0.616%
- Weight % chg ([2]; Samp RH 74.87%, 24.78° C., elapsed 301.2 min (sorption)): 0.608%
- Weight % chg ([2]; Samp RH 75.25%, 24.78° C., elapsed 471.9 min (desorption)): 0.949%
- Weight % chg ([2]; Samp RH 84.67%, 24.79° C., elapsed 322.2 min (sorption)): 1.410%
- Weight % chg ([2]; Samp RH 85.18%, 24.77° C., elapsed 452.4 min (desorption)): 1.632%
- Weight % chg ([2]; Samp RH 94.73%, 24.78° C., elapsed 415.8 min (sorption)): 4.216%
- weight loss on equilibration at 5% relative humidity ([2]; equilibration at 5% RH): 1.3%
- form by XRPD of the material remaining after the moisture sorption/desorption analysis [2]: a mixture of Form A and Form E; also recorded: A + small quantity of E

SMILES: Cn1c(=O)cc(N2CCC[C@@H](N)C2)n(Cc2cc(F)ccc2C#N)c1=O.O=C(O)CCC(=O)O [Form B]
- form change in additional relative humidity stressing studies [5]: converted to Form A
